The source of these data is ChEMBL document CHEMBL4402552, “The Discovery of 7-Methyl-2-[(7-methyl[1,2,4]triazolo[1,5-a]pyridin-6-yl)amino]-9-(tetrahydro-2H-pyran-4-yl)-7,9-dihydro-8H-purin-8-one (AZD7648), a Potent and Selective DNA-Dependent Protein Kinase (DNA-PK) Inhibitor” (J Med Chem, 2020).

The structures appear in SMILES notation. In brackets after ≈: the same amount, converted by molar mass.

One data set is described as follows: physchem. Conditions: buffer, pH 7.4.
Data set [1] can be described thus: Apparent permeability across apical to basolateral side in human Caco2 cells in absence of efflux inhibitor by ABBA assay. The format is ADME, cell-based. Conditions: Caco-2.
Data set [2] is described as follows: Intrinsic clearance in human microsomes. Format: ADME, Microsome.
A short description of data set [3]: Dissociation constant, pKa of the compound. The format is physicochemical.
The nature of data set [4]: Drug level in rat hepatocytes treated with 9-(trans-4-Hydroxycyclohexyl)-2-[(4-methoxy-2-methylphenyl)amino]-7-methyl-7,9-dihydro-8H-purin-8-one assessed as compound formation at 5 uM measured after 60 mins by UV-MS analysis. Format: ADME, cell-based, Hepatocyte. The conditions noted are these: 1 h.
A short description of data set [5]: Drug level in mouse hepatocytes treated with 9-(trans-4-Hydroxycyclohexyl)-2-[(4-methoxy-2-methylphenyl)amino]-7-methyl-7,9-dihydro-8H-purin-8-one assessed as compound formation at 5 uM measured after 60 mins by UV-MS analysis. Conditions: 1 h. The format is ADME, cell-based, Hepatocyte.
The nature of data set [6]: Drug metabolism in human hepatocytes assessed as dealkylation at 5 uM measured after 60 mins by UV-MS analysis. The format is ADME, cell-based, Hepatocyte. Conditions: 1 h.
A short description of data set [7]: Drug metabolism in rat hepatocytes assessed as dealkylation and oxidation by measuring iminoquinone formation at 5 uM measured after 60 mins by UV-MS analysis. The format is ADME, cell-based, Hepatocyte. Conditions: 1 h.
Data set [8] in a line: Drug metabolism in mouse hepatocytes assessed as dealkylation and oxidation by measuring iminoquinone formation at 5 uM measured after 60 mins by UV-MS analysis. Format: ADME, cell-based, Hepatocyte. Conditions: 1 h.
A short description of data set [9]: Drug metabolism in mouse hepatocytes assessed as dealkylation at 5 uM measured after 60 mins by UV-MS analysis. Format: ADME, cell-based, Hepatocyte. The conditions noted are these: 1 h.
The nature of data set [10]: Drug metabolism in rat hepatocytes assessed as dealkylation at 5 uM measured after 60 mins by UV-MS analysis. Format: ADME, cell-based, Hepatocyte. Conditions: 1 h.
Data set [11] in a line: Solubility of the compound in fasted state simulated intestinal fluid using crystalline sample. Format: physicochemical.
A short description of data set [12]: Volume of distribution at steady state in Han Wistar rat at 2 mg/kg, iv or 5 mg/kg, po. The format is ADME, organism-based. The conditions noted are these: in vivo, read-out: Vdss.
The nature of data set [13]: Oral bioavailability in Beagle dog at 2 mg/kg. Format: ADME, organism-based, Canis lupus familiaris. The conditions noted are these: in vivo.
Data set [14] is described as follows: Solubility of the compound in simulated gastric fluid using crystalline sample. Format: physicochemical.
Data set [15] in a line: Cmax in ATM knock out human FADU cells xenografted SCID mouse at 100 mg/kg, po qd measured after 2 hrs. The format is ADME, organism-based. The conditions noted are these: in vivo, read-out: T>IC50.
Data set [16] can be described thus: Oral bioavailability in Han Wistar rat at 5 mg/kg. Format: ADME, organism-based. Conditions: in vivo.
Data set [17] in a line: Time at which plasma concentration stays above in vitro IC50 for inhibition of DNA-PK in human A549 cells in SCID mouse at 100 mg/kg, po qd. The format is organism-based. The conditions noted are these: in vivo.
A short description of data set [18]: Volume of distribution at steady state in Beagle dog at 1 mg/kg, iv or 2 mg/kg, po. The format is ADME, organism-based, Canis lupus familiaris. Conditions: in vivo, read-out: Vdss.
Data set [19] in a line: Free plasma concentration in SCID mouse at 100 mg/kg, po qd measured after 10 hrs. Format: ADME, organism-based. The conditions noted are these: in vivo.

The compound `Cc1cc2ncnn2cc1Nc1ncc2c(n1)n([C@H]1CC[C@H](O)CC1)c(=O)n2C` had a logD in the data set “physchem” of 1.3. Further, the Papp A→B in [1] stood at 0.4 ×10⁻⁶ cm/s.

In “physchem”, `COc1ccc(C)c(Nc2ncc3c(n2)n([C@H]2CC[C@H](O)CC2)c(=O)n3C)c1` returned a logD of 2.6.

The compound `COc1ccc(Nc2ncc3c(n2)n(C2CCCCC2)c(=O)n3C)c(C)c1` showed a logD in the data set “physchem” of 4.1.

In the case of `Cc1cc2ncnn2cc1Nc1ncc2c(n1)n(C1CCC(F)(F)CC1)c(=O)n2C`, the logD in the data set “physchem” was 2. This compound gave a microsomal CLint in [2] of 68 µL/min/mg. The Papp A→B in data set [1] worked out at 23 ×10⁻⁶ cm/s.

Consider `Cc1cc2nccn2cc1Nc1ncc2c(n1)n([C@H]1CC[C@H](O)CC1)c(=O)n2C`, for which the logD in “physchem” came to 1.4. Also, in [1], the Papp A→B worked out at 0.4 ×10⁻⁶ cm/s.

As for `COc1ccc(Nc2ncc3c(n2)n(-c2ccccc2)c(=O)n3C)c(C)c1`, the logD in “physchem” came out at 2.8.

With `Cc1cc2nccn2cc1Nc1ncc2c(n1)n(C1CCOCC1)c(=O)n2C`, in data set [3], the pKa is 7.1. In addition, the Papp A→B in data set [1] was found to be 11 ×10⁻⁶ cm/s.

In the case of `COc1ccc(Nc2ncc3c(n2)n(C2CCCC2)c(=O)n3C)c(C)c1`, the logD in “physchem” is 3.7.

On to `NC1=C(C(=O)c2ccccc2)/C(=N/c2ccccc2C(=O)c2ccccc2)C=CC1=O`, for which the Drug uptake entry in data set [4] and in data set [5] was “Metabolite_Detected” throughout.

In the data set “physchem”, `COc1ccc(Nc2ncc3[nH]c(=O)n([C@H]4CC[C@H](O)CC4)c3n2)c(C)c1` displayed a logD of 2.3.

In the case of `Cc1c(Nc2ncc3c(n2)n([C@H]2CC[C@H](O)CC2)c(=O)n3C)ccc2nccn12`, the logD in “physchem” is 1.2.

In the case of `Cc1cc2ncnn2cc1Nc1ncc2c(n1)n([C@H]1CC[C@@](C)(O)CC1)c(=O)n2C`, the logD in the data set “physchem” came out at 1.9. The compound also registered a pKa in data set [3] of 3.6. Also, in data set [1], the Papp A→B turned out to be 24 ×10⁻⁶ cm/s.

Turning to `Cc1cc2ncnn2cc1Nc1ncc2c(n1)n(C1CCCCC1)c(=O)n2C`, in “physchem”, the logD is 3.1. For the same compound, the microsomal CLint in data set [2] was found to be 93 µL/min/mg. Further, the Papp A→B in [1] stood at 24 ×10⁻⁶ cm/s.

`Cc1ccccc1Nc1ncc2c(n1)n([C@H]1CC[C@H](O)CC1)c(=O)n2C`: the pH-dependent lipophilicity (logD) in the data set “physchem” came out at 2.5.

In “physchem”, `Cn1c(=O)n([C@H]2CC[C@H](O)CC2)c2nc(Nc3ccccc3)ncc21` showed a pH-dependent lipophilicity (logD) of 2.4.

With `Cc1cc2ncnn2cc1Nc1ncc2c(n1)n([C@H]1CC[C@](C)(O)CC1)c(=O)n2C`, in the data set “physchem”, the logD was 1.1. Further, the Papp A→B in data set [1] amounted to 0.7 ×10⁻⁶ cm/s.

As to `COc1ccc(Nc2ncc3c(n2)n([C@H]2CC[C@H](O)CC2)c(=O)n3C)cc1`, the logD in “physchem” came out at 2.3.

As to `COc1ccc(Nc2ncc3c(n2)n([C@H]2CC[C@H](O)CC2)c(=O)n3C)c(C)c1`, the Drug metabolism result in data set [6], in data set [7], in data set [8], in data set [9] and in [10] was “Metabolite_Detected” in each case. Moreover, the logD in “physchem” is 2.3. In data set [2], this compound gave an intrinsic clearance (microsomal CLint) of 49 µL/min/mg.

Compound `Cn1c(=O)n([C@H]2CC[C@H](O)CC2)c2nc(Nc3ccc4ncnn4c3)ncc21` gave a logD in the data set “physchem” of 1.7.

In “physchem”, `Cn1c(=O)n([C@H]2CC[C@H](O)CC2)c2nc(Nc3ccc4nccn4c3)ncc21` yielded a logD of 1.8.

Take `Cc1cc2ncnn2cc1Nc1ncc2c(n1)n(C1CCOCC1)c(=O)n2C` [AZD-7648]: in “physchem”, the logD is 1.3. Also, the solubility (thermodynamic) was 180 µM (≈ 68.5 µg/mL) in data set [11] and above 10000 µM in data set [14]. The pKa in data set [3] stood at 3.4. The Vd in [12] turned out to be 1.4 L/kg; in [18], 0.7 L/kg. Also, the bioavailability in data set [13] was found to be 93%; in data set [16], 104%. Further, the Cmax in [15] came to 17 µM. In addition, the Time in [17] is above 12 h. In data set [1], the Papp A→B was 22 ×10⁻⁶ cm/s. Besides, the “Cp(f)” value in [19] was above 1 µM.
